Source: the kinase profiling compilation of Christmann-Franck et al. (2016)

Assays:
Assay in all cases: KINOMEscan competition binding
Details in all cases: compound 10.0 µM
[1] = target: CASK (human) (UniProt O14936)
[2] = target: RPS6KB1 (human) (UniProt P23443)
[3] = target: PI4KB (human) (UniProt Q9UBF8)
[4] = tested on: PIK3CA (human), P42336 [E545K]
[5] = target: NEK3 (human) (UniProt P51956)
[6] = target: PRKCI (human) (UniProt P41743)
[7] = target: CDKL5 (human) (UniProt O76039)
[8] = tested on: PIK3CA (human), P42336 [H1047Y]
[9] = target: HIPK2 (human) (UniProt Q9H2X6)
[10] = tested on: CPK1 (P.falciparum)
[11] = target: ERBB3 (human) (UniProt P21860)
[12] = tested on: ABL1 (human), P00519 [E255K]
[13] = tested on: PIK3CA (human), P42336 [C420R]
[14] = target: EPHB6 (human) (UniProt O15197)
[15] = target: MTOR (human) (UniProt P42345)
[16] = target: IRAK1 (human) (UniProt P51617)
[17] = target: MAP2K5 (human) (UniProt Q13163)
[18] = target: SBK1 (human) (UniProt Q52WX2)
[19] = target: IRAK4 (human) (UniProt Q9NWZ3)
[20] = target: TAOK2 (human) (UniProt Q9UL54)
[21] = target: NIM1 (human) (UniProt Q8IY84)
[22] = tested on: PIK3CA (human), P42336 [E545A]
[23] = target: MAST1 (human) (UniProt Q9Y2H9)
[24] = target: HUNK (human) (UniProt P57058)
[25] = target: SGK3 (human) (UniProt Q96BR1)
[26] = target: MAP3K13 (human) (UniProt O43283)
[27] = target: ROCK1 (human) (UniProt Q13464)
[28] = target: HIPK4 (human) (UniProt Q8NE63)
[29] = target: PIK3CG (human) (UniProt P48736)
[30] = target: DYRK1A (human) (UniProt Q13627)
[31] = target: KIT (human) (UniProt P10721)
[32] = target: GRK4 (human) (UniProt P32298)
[33] = target: VRK2 (human) (UniProt Q86Y07)
[34] = target: BRAF (human) (UniProt P15056)
[35] = target: ICK (human) (UniProt Q9UPZ9)
[36] = target: CDK4 CCND1 (human) (UniProt P11802+P24385)
[37] = target: MET (human) (UniProt P08581)
[38] = target: CDKL1 (human) (UniProt Q00532)
[39] = target: MYLK3 (human) (UniProt Q32MK0)
[40] = target: CDK2 (human) (UniProt P24941)

MAST1 (human), sequence (Q9Y2H9 whole entry, looked up): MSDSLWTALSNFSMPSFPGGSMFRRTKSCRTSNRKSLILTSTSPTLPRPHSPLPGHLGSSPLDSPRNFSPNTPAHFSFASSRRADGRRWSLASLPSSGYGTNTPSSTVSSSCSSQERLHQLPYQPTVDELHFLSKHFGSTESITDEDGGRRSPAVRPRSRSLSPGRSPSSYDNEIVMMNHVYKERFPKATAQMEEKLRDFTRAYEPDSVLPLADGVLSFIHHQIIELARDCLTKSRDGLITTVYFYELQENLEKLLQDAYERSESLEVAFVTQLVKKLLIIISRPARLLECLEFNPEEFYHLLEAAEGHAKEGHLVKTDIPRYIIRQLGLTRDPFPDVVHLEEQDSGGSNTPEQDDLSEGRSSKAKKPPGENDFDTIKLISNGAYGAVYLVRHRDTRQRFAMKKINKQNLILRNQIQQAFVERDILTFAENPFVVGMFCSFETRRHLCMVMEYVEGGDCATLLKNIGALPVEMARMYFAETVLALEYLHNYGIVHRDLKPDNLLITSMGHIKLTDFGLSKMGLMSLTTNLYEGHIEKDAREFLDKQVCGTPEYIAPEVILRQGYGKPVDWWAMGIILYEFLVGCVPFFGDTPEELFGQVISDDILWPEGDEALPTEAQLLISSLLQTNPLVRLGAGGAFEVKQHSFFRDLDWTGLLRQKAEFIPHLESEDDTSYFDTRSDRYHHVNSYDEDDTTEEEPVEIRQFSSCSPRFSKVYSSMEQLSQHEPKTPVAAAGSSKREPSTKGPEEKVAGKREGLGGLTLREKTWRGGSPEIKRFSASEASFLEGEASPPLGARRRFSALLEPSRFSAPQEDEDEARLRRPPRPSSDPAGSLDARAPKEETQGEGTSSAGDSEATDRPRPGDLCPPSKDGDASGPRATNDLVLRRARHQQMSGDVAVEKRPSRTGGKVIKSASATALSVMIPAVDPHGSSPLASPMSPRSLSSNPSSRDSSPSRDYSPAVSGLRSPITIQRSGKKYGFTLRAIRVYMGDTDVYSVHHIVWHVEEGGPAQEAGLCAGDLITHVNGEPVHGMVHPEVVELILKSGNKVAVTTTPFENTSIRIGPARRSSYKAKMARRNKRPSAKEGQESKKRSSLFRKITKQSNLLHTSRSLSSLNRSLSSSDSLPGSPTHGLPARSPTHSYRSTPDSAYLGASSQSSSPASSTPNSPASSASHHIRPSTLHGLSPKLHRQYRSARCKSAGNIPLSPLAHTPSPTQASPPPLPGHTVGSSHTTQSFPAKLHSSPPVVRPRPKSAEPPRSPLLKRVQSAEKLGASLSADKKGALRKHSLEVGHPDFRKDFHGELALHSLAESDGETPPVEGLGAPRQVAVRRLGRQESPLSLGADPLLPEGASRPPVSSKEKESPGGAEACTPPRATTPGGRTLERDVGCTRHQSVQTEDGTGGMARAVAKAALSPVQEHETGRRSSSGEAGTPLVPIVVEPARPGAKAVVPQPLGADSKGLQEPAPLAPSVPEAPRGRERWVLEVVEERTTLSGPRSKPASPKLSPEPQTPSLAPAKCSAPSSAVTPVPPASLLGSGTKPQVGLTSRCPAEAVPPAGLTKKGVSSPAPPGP
CDKL1 (human), sequence (Q00532 whole entry, looked up): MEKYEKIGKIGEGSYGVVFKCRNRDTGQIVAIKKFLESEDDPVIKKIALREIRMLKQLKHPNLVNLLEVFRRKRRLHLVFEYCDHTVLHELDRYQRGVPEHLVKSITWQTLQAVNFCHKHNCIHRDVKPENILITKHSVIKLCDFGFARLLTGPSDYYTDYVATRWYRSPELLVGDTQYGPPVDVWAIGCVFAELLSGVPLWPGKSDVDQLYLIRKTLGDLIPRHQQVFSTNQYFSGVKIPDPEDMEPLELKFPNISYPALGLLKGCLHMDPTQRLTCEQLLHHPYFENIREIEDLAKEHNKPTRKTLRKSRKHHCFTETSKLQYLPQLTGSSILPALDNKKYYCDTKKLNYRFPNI
PIK3CA (human), P42336 [E545A], sequence (P42336 whole entry E545A, looked up): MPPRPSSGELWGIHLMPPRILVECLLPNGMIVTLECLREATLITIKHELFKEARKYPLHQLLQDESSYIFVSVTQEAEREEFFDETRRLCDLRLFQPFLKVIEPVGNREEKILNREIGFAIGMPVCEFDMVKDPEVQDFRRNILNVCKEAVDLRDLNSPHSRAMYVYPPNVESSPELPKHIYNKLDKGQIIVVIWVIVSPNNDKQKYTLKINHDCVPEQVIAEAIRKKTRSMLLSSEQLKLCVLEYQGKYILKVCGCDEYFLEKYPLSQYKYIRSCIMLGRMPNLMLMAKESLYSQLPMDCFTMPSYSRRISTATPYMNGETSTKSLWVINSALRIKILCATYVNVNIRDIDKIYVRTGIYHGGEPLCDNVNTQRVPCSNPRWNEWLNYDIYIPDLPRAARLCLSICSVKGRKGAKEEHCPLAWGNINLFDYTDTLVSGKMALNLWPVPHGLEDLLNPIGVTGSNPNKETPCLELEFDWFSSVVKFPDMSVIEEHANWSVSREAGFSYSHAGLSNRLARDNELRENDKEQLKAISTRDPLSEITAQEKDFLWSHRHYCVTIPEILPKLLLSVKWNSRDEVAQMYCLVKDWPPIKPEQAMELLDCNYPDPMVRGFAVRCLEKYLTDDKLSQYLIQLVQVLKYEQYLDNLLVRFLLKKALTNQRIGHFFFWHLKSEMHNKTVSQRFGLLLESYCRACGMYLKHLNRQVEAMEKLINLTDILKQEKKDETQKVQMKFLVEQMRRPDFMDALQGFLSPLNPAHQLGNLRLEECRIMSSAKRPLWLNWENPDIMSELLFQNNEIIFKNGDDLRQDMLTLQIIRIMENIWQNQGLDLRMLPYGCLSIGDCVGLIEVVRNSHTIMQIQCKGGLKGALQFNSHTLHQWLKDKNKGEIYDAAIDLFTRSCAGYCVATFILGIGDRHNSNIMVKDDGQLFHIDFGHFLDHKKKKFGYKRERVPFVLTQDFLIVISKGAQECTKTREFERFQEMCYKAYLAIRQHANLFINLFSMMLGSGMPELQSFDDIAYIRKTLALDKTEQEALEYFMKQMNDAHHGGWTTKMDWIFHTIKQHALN
VRK2 (human), sequence (Q86Y07 whole entry, looked up): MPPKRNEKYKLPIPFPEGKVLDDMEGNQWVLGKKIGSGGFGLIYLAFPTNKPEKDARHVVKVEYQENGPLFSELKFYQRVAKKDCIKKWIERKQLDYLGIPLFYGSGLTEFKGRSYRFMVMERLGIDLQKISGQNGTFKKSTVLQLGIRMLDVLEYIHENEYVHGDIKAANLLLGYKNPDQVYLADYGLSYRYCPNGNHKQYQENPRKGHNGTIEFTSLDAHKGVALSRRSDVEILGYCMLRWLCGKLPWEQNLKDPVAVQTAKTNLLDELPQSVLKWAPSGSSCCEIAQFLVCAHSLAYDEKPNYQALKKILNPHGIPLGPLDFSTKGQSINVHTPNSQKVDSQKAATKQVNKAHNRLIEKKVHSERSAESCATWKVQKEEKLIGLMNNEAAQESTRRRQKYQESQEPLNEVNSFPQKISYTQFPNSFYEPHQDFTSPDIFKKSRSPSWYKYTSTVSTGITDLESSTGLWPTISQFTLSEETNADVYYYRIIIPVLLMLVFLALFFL
NIM1 (human), sequence (Q8IY84 whole entry, looked up): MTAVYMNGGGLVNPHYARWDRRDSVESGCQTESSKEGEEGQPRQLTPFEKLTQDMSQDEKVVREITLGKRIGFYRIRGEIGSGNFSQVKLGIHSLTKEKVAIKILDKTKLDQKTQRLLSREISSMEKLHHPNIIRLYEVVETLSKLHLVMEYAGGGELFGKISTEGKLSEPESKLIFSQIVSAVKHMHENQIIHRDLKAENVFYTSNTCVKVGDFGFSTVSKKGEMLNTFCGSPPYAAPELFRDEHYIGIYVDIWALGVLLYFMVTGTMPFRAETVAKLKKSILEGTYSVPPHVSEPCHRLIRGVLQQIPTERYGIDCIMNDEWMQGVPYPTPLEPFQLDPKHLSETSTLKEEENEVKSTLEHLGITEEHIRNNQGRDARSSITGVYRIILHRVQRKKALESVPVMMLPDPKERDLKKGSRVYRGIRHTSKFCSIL
BRAF (human), sequence (P15056 whole entry, looked up): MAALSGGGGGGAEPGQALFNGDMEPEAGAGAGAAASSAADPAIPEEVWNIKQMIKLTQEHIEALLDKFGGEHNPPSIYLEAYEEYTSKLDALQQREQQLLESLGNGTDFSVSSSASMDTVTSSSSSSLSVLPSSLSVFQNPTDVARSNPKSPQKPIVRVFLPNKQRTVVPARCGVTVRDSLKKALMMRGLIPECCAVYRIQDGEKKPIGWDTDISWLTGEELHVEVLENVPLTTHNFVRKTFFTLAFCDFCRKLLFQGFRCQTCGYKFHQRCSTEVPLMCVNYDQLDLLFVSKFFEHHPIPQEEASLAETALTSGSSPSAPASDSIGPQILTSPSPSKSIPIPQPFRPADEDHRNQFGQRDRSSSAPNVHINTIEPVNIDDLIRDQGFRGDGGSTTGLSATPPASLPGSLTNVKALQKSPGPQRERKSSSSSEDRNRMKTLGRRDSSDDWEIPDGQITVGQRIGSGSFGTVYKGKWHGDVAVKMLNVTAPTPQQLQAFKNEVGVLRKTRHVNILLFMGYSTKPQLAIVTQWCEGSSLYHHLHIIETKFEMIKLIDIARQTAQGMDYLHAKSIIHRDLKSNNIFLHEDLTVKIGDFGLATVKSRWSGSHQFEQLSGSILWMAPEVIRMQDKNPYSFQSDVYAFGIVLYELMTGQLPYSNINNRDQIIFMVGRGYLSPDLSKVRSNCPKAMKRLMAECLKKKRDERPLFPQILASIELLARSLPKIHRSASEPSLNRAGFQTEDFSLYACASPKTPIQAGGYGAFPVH
PIK3CA (human), P42336 [H1047Y], sequence (P42336 whole entry H1047Y, looked up): as the sequence (P42336 whole entry E545A, looked up) above, with A545E, H1047Y counted along it
PIK3CA (human), P42336 [C420R], sequence (P42336 whole entry C420R, looked up): as the sequence (P42336 whole entry E545A, looked up) above, with C420R, A545E counted along it
PIK3CA (human), P42336 [E545K], sequence (P42336 whole entry E545K, looked up): as the sequence (P42336 whole entry E545A, looked up) above, with A545K counted along it

Structure (SMILES)	kinase still bound, per cent of control [1] [%]	kinase still bound, per cent of control [2] [%]	kinase still bound, per cent of control [3] [%]	kinase still bound, per cent of control [5] [%]	kinase still bound, per cent of control [6] [%]	kinase still bound, per cent of control [7] [%]	kinase still bound, per cent of control [10] [%]	kinase still bound, per cent of control [11] [%]	kinase still bound, per cent of control [12] [%]	kinase still bound, per cent of control [14] [%]	kinase still bound, per cent of control [15] [%]	kinase still bound, per cent of control [16] [%]	kinase still bound, per cent of control [17] [%]	kinase still bound, per cent of control [18] [%]	kinase still bound, per cent of control [19] [%]	kinase still bound, per cent of control [20] [%]	kinase still bound, per cent of control [21] [%]	kinase still bound, per cent of control [23] [%]	kinase still bound, per cent of control [24] [%]	kinase still bound, per cent of control [25] [%]	other results
Cc1ccc2nc(NCCN)c3ncc(C)n3c2c1	100	96	100	100	88	46	52	83	87	44	87	78	96	100	100	70	100	100	100	100	kinase still bound, per cent of control [4]: 100%; kinase still bound, per cent of control [8]: 26%; kinase still bound, per cent of control [9]: 58%; kinase still bound, per cent of control [13]: 52%; kinase still bound, per cent of control [22]: 31%; kinase still bound, per cent of control [26]: 74%; kinase still bound, per cent of control [27]: 100%; kinase still bound, per cent of control [28]: 41%; kinase still bound, per cent of control [29]: 100%; kinase still bound, per cent of control [30]: 39%; kinase still bound, per cent of control [31]: 37%; kinase still bound, per cent of control [32]: 100%; kinase still bound, per cent of control [33]: 100%; kinase still bound, per cent of control [34]: 95%; kinase still bound, per cent of control [35]: 100%; kinase still bound, per cent of control [36]: 58%; kinase still bound, per cent of control [37]: 100%; kinase still bound, per cent of control [38]: 74%
Cc1cc([C@@H](C)Nc2ccccc2C(=O)O)c2nc(N3CCOCC3)cc(=O)n2c1	92	72	100	100	100	74	62	100	94	41	11	90	100	100	100	94	100	100	81	86	kinase still bound, per cent of control [39]: 100%; kinase still bound, per cent of control [9]: 79%; kinase still bound, per cent of control [40]: 93%; kinase still bound, per cent of control [26]: 100%; kinase still bound, per cent of control [27]: 73%; kinase still bound, per cent of control [28]: 100%; kinase still bound, per cent of control [30]: 90%; kinase still bound, per cent of control [31]: 91%; kinase still bound, per cent of control [32]: 90%; kinase still bound, per cent of control [33]: 100%; kinase still bound, per cent of control [34]: 100%; kinase still bound, per cent of control [35]: 100%; kinase still bound, per cent of control [36]: 100%; kinase still bound, per cent of control [37]: 86%; kinase still bound, per cent of control [38]: 100%
O=C(NOC[C@H](O)CO)c1ccc(F)c(F)c1Nc1ccc(I)cc1F	67	100	100	100	70	67	78	100	100	87	100	100	86	100	100	100	100	100	100	89	kinase still bound, per cent of control [4]: 53%; kinase still bound, per cent of control [8]: 57%; kinase still bound, per cent of control [13]: 50%; kinase still bound, per cent of control [40]: 91%; kinase still bound, per cent of control [22]: 45%; kinase still bound, per cent of control [26]: 86%; kinase still bound, per cent of control [27]: 100%; kinase still bound, per cent of control [28]: 100%; kinase still bound, per cent of control [29]: 88%; kinase still bound, per cent of control [30]: 100%; kinase still bound, per cent of control [31]: 92%; kinase still bound, per cent of control [32]: 100%; kinase still bound, per cent of control [33]: 100%; kinase still bound, per cent of control [34]: 98%; kinase still bound, per cent of control [35]: 84%; kinase still bound, per cent of control [36]: 93%; kinase still bound, per cent of control [38]: 78%
C=CC(=O)Nc1cc(NC(=O)c2ccc(C)c(NC(=O)c3ccno3)c2)cc(C(F)(F)F)c1	83	87	88	88	100	100	94	100	86	81	97	100	80	100	99	87	98	100	100	100	kinase still bound, per cent of control [4]: 95%; kinase still bound, per cent of control [39]: 91%; kinase still bound, per cent of control [8]: 95%; kinase still bound, per cent of control [9]: 86%; kinase still bound, per cent of control [13]: 82%; kinase still bound, per cent of control [40]: 100%; kinase still bound, per cent of control [22]: 86%; kinase still bound, per cent of control [26]: 98%; kinase still bound, per cent of control [27]: 100%; kinase still bound, per cent of control [28]: 100%; kinase still bound, per cent of control [29]: 76%; kinase still bound, per cent of control [30]: 99%; kinase still bound, per cent of control [31]: 4.7%; kinase still bound, per cent of control [32]: 100%; kinase still bound, per cent of control [33]: 100%; kinase still bound, per cent of control [35]: 75%; kinase still bound, per cent of control [36]: 100%; kinase still bound, per cent of control [37]: 100%; kinase still bound, per cent of control [38]: 100%
